# Results published in patent publication US9873680B2 (Gilead Sciences, Inc., priority 2014, dated 2018).
# Like-named read-outs stand apart in the source and are kept apart here.
# Assays:
# [1] = Test B: Cytotoxicity Assay; format: cell-based; details: human, uninfected MT-4 cells, CellTiter-Glo
# Description: Test B: Cytotoxicity Assay Compound cytotoxicity and the corresponding CC50 values was determined using the same protocol as described in the antiviral assay (Test A) except that uninfected cells were used.
# HIV-IIIb = test: Test A: Antiviral Assay in MT4 Cells; format: cell-based, HIV-1; details: read-out: % inhibition at 0.2 μM (percent inhibition of virus-induced cell killing)
# In short: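 MT-4 cells were preinfected with HIV-IIIb […]. Cell viability, as protection from viral cytopathic effect, was read by CellTiter-Glo chemiluminescence.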
# [2] = Human immunodeficiency virus 1, MT4, 120 h, 0.2 μM drug concentration, MT-4 cells infected with HIV-IIIb, 5 days, values normalized to 100%, average over time
SMILES,CC50 at 5 days [1] [µM],inhibition at 0.2 µM (HIV-IIIb; [2]) [%],"inhibition at 0.2 µM (HIV-IIIb; Human immunodeficiency virus 1, IIIB, MT4, 120 h) [%]"
"Cn1nc(NS(C)(=O)=O)c2c(Cl)ccc(-c3ccc(C#CC(C)(O)Cn4cncn4)nc3[C@H](Cc3cc(F)cc(F)c3)NC(=O)Cn3nc(C(F)(F)F)c4c3C(F)(F)[C@@H]3C[C@H]43)c21 (stereo partly drawn) [Compound 70B, N-((1S)-1-(3-(4-chloro-1-methyl-3-(methylsulfonamido)-1H-indazol-7-yl)-6-(3-hydroxy-3-methyl-4-(1H-1,2,4-triazol-1-yl)but-1-yn-1-yl)pyridin-2-yl)-2-(3,5-difluorophenyl)ethyl)-2-((3bS,4aR)-5,5-difluoro-3-(trifluoromethyl)-3b,4,4a,5-tetrahydro-1H-cyclopropa[3,4]cyclopenta[1,2-c]pyrazol-1-yl)acetamide]",14.2,96,
"Cn1nc(NS(C)(=O)=O)c2c(Cl)ccc(-c3ccc(-c4cnn(C5CCOCC5)c4)nc3[C@H](Cc3cc(F)cc(F)c3)NC(=O)Cn3nc(C(F)(F)F)c4c3C(F)(F)[C@@H]3C[C@H]43)c21 [Compound 71, N—((S)-1-(3-(4-chloro-1-methyl-3-(methylsulfonamido)-1H-indazol-7-yl)-6-(1-(tetrahydro-2H-pyran-4-yl)-1H-pyrazol-4-yl)pyridin-2-yl)-2-(3,5-difluorophenyl)ethyl)-2-((3bS,4aR)-5,5-difluoro-3-(trifluoromethyl)-3b,4,4a,5-tetrahydro-1H-cyclopropa[3,4]cyclopenta[1,2-c]pyrazol-1-yl)acetamide]",> 53.2,97,
"Cn1nc(NS(C)(=O)=O)c2c(Cl)ccc(-c3ccc(-c4cnn(C5COC5)c4)nc3[C@H](Cc3cc(F)cc(F)c3)NC(=O)Cn3nc(C(F)(F)F)c4c3C(F)(F)[C@@H]3C[C@H]43)c21 [Compound 72, N—((S)-1-(3-(4-chloro-1-methyl-3-(methylsulfonamido)-1H-indazol-7-yl)-6-(1-(oxetan-3-yl)-1H-pyrazol-4-yl)pyridin-2-yl)-2-(3,5-difluorophenyl)ethyl)-2-((3bS,4aR)-5,5-difluoro-3-(trifluoromethyl)-3b,4,4a,5-tetrahydro-1H-cyclopropa[3,4]cyclopenta[1,2-c]pyrazol-1-yl)acetamide]",50.3,93,
"Cn1nc(NS(C)(=O)=O)c2c(Cl)ccc(-c3ccc(C#CC4CCCNC4)nc3[C@H](Cc3cc(F)cc(F)c3)NC(=O)Cn3nc(C(F)(F)F)c4c3C(F)(F)[C@@H]3C[C@H]43)c21 (stereo partly drawn) [Compound 73, N-((1S)-1-(3-(4-chloro-1-methyl-3-(methylsulfonamido)-1H-indazol-7-yl)-6-(piperidin-3-ylethynyl)pyridin-2-yl)-2-(3,5-difluorophenyl)ethyl)-2-((3bS,4aR)-5,5-difluoro-3-(trifluoromethyl)-3b,4,4a,5-tetrahydro-1H-cyclopropa[3,4]cyclopenta[1,2-c]pyrazol-1-yl)acetamide]",6,,100
"Cn1nc(NS(C)(=O)=O)c2c(Cl)ccc(-c3ccc(C#CC4(O)COC(C)(C)OC4)nc3[C@H](Cc3cc(F)cc(F)c3)NC(=O)Cn3nc(C(F)(F)F)c4c3C(F)(F)[C@@H]3C[C@H]43)c21 [Compound 74, N—((S)-1-(3-(4-chloro-1-methyl-3-(methylsulfonamido)-1H-indazol-7-yl)-6-((5-hydroxy-2,2-dimethyl-1,3-dioxan-5-yl)ethynyl)pyridin-2-yl)-2-(3,5-difluorophenyl)ethyl)-2-((3bS,4aR)-5,5-difluoro-3-(trifluoromethyl)-3b,4,4a,5-tetrahydro-1H-cyclopropa[3,4]cyclopenta[1,2-c]pyrazol-1-yl)acetamide]",8.62,77,
